These compounds were tested against BTK wild-type kinase (Homo sapiens (Human), UniProt Q06187) (assay: BTK kinase activity inhibition test in vitro (Caliper EZ Reader)).
Sequence of BTK wild-type kinase (Q06187 whole entry): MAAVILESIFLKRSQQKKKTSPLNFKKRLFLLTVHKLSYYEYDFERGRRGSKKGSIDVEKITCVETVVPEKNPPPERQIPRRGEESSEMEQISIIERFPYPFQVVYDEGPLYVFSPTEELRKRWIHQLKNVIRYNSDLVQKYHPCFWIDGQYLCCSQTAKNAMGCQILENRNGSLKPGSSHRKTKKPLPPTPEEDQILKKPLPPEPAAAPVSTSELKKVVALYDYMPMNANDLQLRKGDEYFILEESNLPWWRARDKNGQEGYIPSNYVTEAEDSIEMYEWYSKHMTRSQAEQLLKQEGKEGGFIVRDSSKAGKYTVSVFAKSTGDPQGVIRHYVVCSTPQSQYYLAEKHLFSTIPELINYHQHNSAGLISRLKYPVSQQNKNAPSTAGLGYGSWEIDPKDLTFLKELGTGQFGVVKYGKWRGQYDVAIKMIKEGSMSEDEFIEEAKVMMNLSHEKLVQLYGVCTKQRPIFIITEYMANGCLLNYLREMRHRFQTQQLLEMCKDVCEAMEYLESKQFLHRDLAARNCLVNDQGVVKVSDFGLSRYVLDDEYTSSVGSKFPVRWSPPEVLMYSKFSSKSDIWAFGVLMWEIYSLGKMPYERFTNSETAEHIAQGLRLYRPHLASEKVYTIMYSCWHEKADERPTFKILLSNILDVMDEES
Type: biochemical
Experimental: In the tests on the activity of inhibiting BTK and HER2 kinase in vitro in the examples of the present disclosure, powder of the compound was dissolved in 100% DMSO to prepare a 10 mM stock solution and stored at-20° C. in the dark. […] In addition, the compounds were subjected to experiments such as liver microsome metabolic stability, rat PK, rat brain penetration rate, and drug efficacy model in the examples of the present disclosure.
Compound powders were dissolved in 100% DMSO to make 10 mM stock solutions, which were stored at -20° C. in the dark.
2: Kinase Reaction Process
(1) Preparation of 1 × Kinase buffer.
(5) After centrifugation at 1000 rpm for 30 seconds, the reaction plate was shaken to mix well and incubated at room temperature for 10 min.
(6) A 5/3-fold final concentration of a mixed solution of ATP and Kinase substrate 2 was prepared with 1 × Kinase buffer.
(7) 15 µL of the mixed solution of ATP and substrate with 5/3-fold final concentration was added to start the reaction.
(8) The 384-well plate was centrifuged at 1000 rpm for 30 seconds, shaken to mix well, and incubated at room temperature for 10 min.
(9) 30 µL of a stop solution was added to stop the kinase reaction, and after centrifugation at 1000 rpm for 30 seconds, the plate was shaken to mix well;
(10) The conversion rate was read with Caliper EZ Reader.
where Conversion%_sample indicates the conversion rate reading of the sample; Conversion%_min is the average reading of the negative control wells, representing the conversion rate reading of the wells without enzyme activity; Conversion%_max is the average reading of the ratio of the positive control wells, representing the conversion rate reading of the wells without compound inhibition.
Dose-Response Curve Fitting
With the log value of the concentration as the X-axis, and the percentage inhibition rate as the Y-axis, the dose-effect curve was fitted using the log(inhibitor) vs. response-Variable slope of the analysis software GraphPad Prism 5, so as to determine the IC50 value of each compound on the enzyme activity.
The calculation formula was: […]
`COc1cccc(Oc2ccc(-c3nc(C4CCC(CO)OC4)n4ccnc(N)c34)cc2)c1C#N` (single isomer, unassigned) [Compound 89-P2] was tested, and the IC50 was under 5 nM.
`Nc1nccn2c(C3CCC(CO)OC3)nc(-c3ccc(C(=O)Nc4cc(C(F)(F)F)ccn4)cc3)c12` (single isomer, unassigned) [Compound 109-P2] was tested, and the IC50 was under 5 nM.
Compound `Nc1nccn2c(C3CC[C@H](CO)OC3)nc(-c3ccc(C(=O)Nc4ccccn4)cc3F)c12` (stereo partly shown) [Compound 1-A] has an IC50 of 5 to 20 nM.
In the case of `Nc1ncc(Cl)n2c(C3CCC(CO)OC3)nc(-c3ccc(C(=O)Nc4ccccn4)cc3)c12` (stereo not shown) [Compound 3], the IC50 is reported as 20 to 100 nM.
`Nc1ncc(Cl)n2c(C3CCC(CO)OC3)nc(-c3ccc(C(=O)Nc4ccccn4)cc3F)c12` (stereo not shown) [Compound 4] showed an IC50 of 20 to 100 nM.
In the case of `COc1cccc(Oc2ccc(-c3nc(C4CCC(CO)OC4)n4ccnc(N)c34)c(F)c2)c1F` (stereo not shown) [Compound 10], the IC50 is reported as under 5 nM.
`Nc1nccn2c(C3CCC(CO)OC3)nc(-c3ccc(Oc4cccc(OC5CC5)c4F)cc3)c12` (stereo not shown) [Compound 15] showed an IC50 of 5 to 20 nM.
`Nc1nccn2c(C3CCC(CO)OC3)nc(-c3ccc(Oc4c(F)c(F)cc(F)c4F)cc3F)c12` (stereo not shown) [Compound 18] gave an IC50 of 20 to 100 nM.
Work on `COc1c(F)ccc(Oc2ccc(-c3nc(C4CCC(CO)OC4)n4ccnc(N)c34)cc2)c1F` (stereo not shown) [Compound 20] yielded an IC50 of 5 to 20 nM.
For `COc1cc(Oc2ccc(-c3nc(C4CCC(CO)OC4)n4ccnc(N)c34)cc2)ccc1F` (stereo not shown) [Compound 21], the IC50 was 20 to 100 nM.
Work on `Nc1nccn2c(C3CCC(CO)OC3)nc(-c3ccc(Oc4cccc(C5CC5)c4F)cc3)c12` (stereo not shown) [Compound 22] yielded an IC50 of 20 to 100 nM.
In the case of `Nc1nccn2c(C3CCC(CO)OC3)nc(-c3ccc(Oc4cccc(OCC5CC5)c4F)cc3)c12` (stereo not shown) [Compound 23], the IC50 is reported as 100 to 1000 nM.
With `Nc1nccn2c(C3CCC(CO)OC3)nc(-c3ccc(Oc4ccc(C5CC5)cc4F)cc3)c12` (stereo not shown) [Compound 25] the IC50 was 20 to 100 nM.
With `CC(O)(c1ccccc1)c1ccc(-c2nc(C3CCC(CO)OC3)n3ccnc(N)c23)cc1` (stereo not shown) [Compound 27] the IC50 was 20 to 100 nM.
`CNC(=O)c1cccc(Oc2ccc(-c3nc(C4CCC(CO)OC4)n4ccnc(N)c34)cc2)c1F` (stereo not shown) [Compound 28] gave an IC50 of 20 to 100 nM.
Work on `COc1cccc(Oc2ccc(-c3nn(C4CCC(CO)OC4)c4ncnc(N)c34)cc2)c1F` (stereo not shown) [Compound 29] yielded an IC50 of 5 to 20 nM.
Work on `COc1cccc(Oc2ccc(-c3nn(C4CCC(CO)OC4)c4ccnc(N)c34)cc2)c1F` (stereo not shown) [Compound 30] yielded an IC50 of 5 to 20 nM.
`Cc1cc(NC(=O)c2ccc(C3CC3)cc2F)c(F)cc1-c1nc(C2CCC(CO)OC2)n2ccnc(N)c12` (stereo not shown) [Compound 31] was tested, and the IC50 was over 1000 nM.
Compound `Nc1nccn2c(C3CCC(CO)OC3)nc(-c3ccc(Oc4ccccc4)cc3Cl)c12` (stereo not shown) [Compound 32] has an IC50 of 5 to 20 nM.
`COc1ccccc1C(=O)NCc1ccc(-c2nc(C3CCC(CO)OC3)n3ccnc(N)c23)cc1` (stereo not shown) [Compound 33] showed an IC50 of 20 to 100 nM.
`Nc1nccn2c(C34CCC(CO)(CC3)OC4)nc(-c3ccc(C(=O)Nc4ccccn4)cc3F)c12` [Compound 35] gave an IC50 of 5 to 20 nM.
Work on `Nc1ncc(Cl)n2c(C34CCC(CO)(CC3)OC4)nc(-c3ccc(C(=O)Nc4ccccn4)cc3F)c12` [Compound 36] yielded an IC50 of 5 to 20 nM.
For `COc1cccc(Oc2ccc(-c3nc(C45CCC(CO)(CC4)OC5)n4ccnc(N)c34)cc2)c1F` [Compound 37], the IC50 was under 5 nM.
Work on `COc1cccc(Oc2ccc(-c3nc(C45CCC(CO)(CC4)OC5)n4ccnc(N)c34)c(F)c2)c1F` [Compound 38] yielded an IC50 of 5 to 20 nM.
Work on `COc1cccc(Oc2ccc(-c3nc(C45CCC(CO)(CC4)OC5)n4c(Cl)cnc(N)c34)cc2)c1F` [Compound 39] yielded an IC50 of under 5 nM.
`Nc1nccn2c(C34COC(CO)(C3)C4)nc(-c3ccc(Oc4cccc(OC(F)(F)F)c4F)cc3F)c12` [Compound 40] gave an IC50 of 5 to 20 nM.
For `Nc1ncc(Cl)n2c(C34COC(CO)(C3)C4)nc(-c3ccc(Oc4cccc(OC(F)(F)F)c4F)cc3F)c12` [Compound 41], the IC50 was 5 to 20 nM.
With `Nc1nccn2c(C34COC(CO)(C3)C4)nc(-c3ccc(C(=O)Nc4ccccn4)cc3)c12` [Compound 42] the IC50 was 20 to 100 nM.
With `Nc1nccn2c(C34COC(CO)(C3)C4)nc(-c3ccc(C(=O)Nc4ccccn4)cc3F)c12` [Compound 43] the IC50 was 20 to 100 nM.
`Nc1ncc(Cl)n2c(C34COC(CO)(C3)C4)nc(-c3ccc(C(=O)Nc4ccccn4)cc3F)c12` [Compound 44] gave an IC50 of 20 to 100 nM.
`COc1cccc(Oc2ccc(-c3nc(C45COC(CO)(C4)C5)n4ccnc(N)c34)cc2)c1F` [Compound 45] gave an IC50 of 5 to 20 nM.
`Nc1nccn2c(C3CCC(CO)OC3)nc(-c3ccc(NC(=O)c4ccc(C5CC5)cc4F)cc3)c12` (stereo not shown) [Compound 46] gave an IC50 of 100 to 1000 nM.
Work on `CC(N)(c1ccccc1)c1ccc(-c2nc(C3CCC(CO)OC3)n3ccnc(N)c23)cc1` (stereo not shown) [Compound 47] yielded an IC50 of 100 to 1000 nM.
Work on `Nc1nccn2c(C3CCC(CO)OC3)nc(-c3ccc(Nc4ccccc4)cc3)c12` (stereo not shown) [Compound 48] yielded an IC50 of 20 to 100 nM.
`C[C@](N)(c1ccc(F)cc1)c1cnc(-c2nc(C3CCC(CO)OC3)n3ccnc(N)c23)nc1` (stereo partly shown) [Compound 49] was tested, and the IC50 was over 1000 nM.
`COc1cccc(Oc2ccc(-c3nc(C4CCC(C5(O)CC5)OC4)n4ccnc(N)c34)cc2)c1F` (stereo not shown) [Compound 50] was tested, and the IC50 was 20 to 100 nM.
Compound `COc1cccc(Oc2ccc(-c3nc(C4CCC(C(C)(C)O)OC4)n4ccnc(N)c34)cc2)c1F` (stereo not shown) [Compound 51] has an IC50 of 20 to 100 nM.
In the case of `COc1cccc(Oc2ccc(-c3nn(C4CCC(CO)OC4)c4c(Cl)cnc(N)c34)cc2)c1F` (stereo not shown) [Compound 52], the IC50 is reported as 5 to 20 nM.
`Nc1ncnc2c1c(-c1ccc(Oc3ccccc3)cc1)nn2C1CCC(CO)OC1` (stereo not shown) [Compound 53] showed an IC50 of 20 to 100 nM.
`Nc1ncnc2c1c(-c1ccc(Oc3ccccc3)cc1F)nn2C1CCC(CO)OC1` (stereo not shown) [Compound 54] gave an IC50 of 20 to 100 nM.
With `Nc1nccn2c(C3CCC(CO)OC3)nc(-c3ccc(OCc4ccccc4)cc3)c12` (stereo not shown) [Compound 55] the IC50 was 20 to 100 nM.
For `Nc1nccn2c(C3CCC(CO)OC3)nc(-c3cnc(Nc4cccc(OC(F)(F)F)c4)nc3)c12` (stereo not shown) [Compound 56], the IC50 was over 1000 nM.
For `Nc1nccc2c1c(-c1ccc(C(=O)Nc3ccccn3)cc1F)nn2C1CCC(CO)OC1` (stereo not shown) [Compound 57], the IC50 was 20 to 100 nM.
In the case of `COc1cccc(NC(=O)c2ccc(-c3nc(C4CCC(CO)OC4)n4ccnc(N)c34)cc2)n1` (stereo not shown) [Compound 58], the IC50 is reported as over 1000 nM.
For `Nc1nccn2c(C3CCC(CO)OC3)nc(-c3ccc(Oc4cccnc4F)cc3)c12` (stereo not shown) [Compound 59], the IC50 was over 1000 nM.
Compound `COc1cccc(C(=O)c2ccc(-c3nc(C4CCC(CO)OC4)n4ccnc(N)c34)cc2)c1F` (stereo not shown) [Compound 61] has an IC50 of 5 to 20 nM.
For `Nc1nccn2c(C3CCC(CO)OC3)nc(-c3ccc(C(=O)c4ccccc4Cl)cc3)c12` (stereo not shown) [Compound 62], the IC50 was 20 to 100 nM.
For `Nc1nccn2c(C3CCC(CO)OC3)nc(-c3ccc(C(O)c4ccccc4Cl)cc3)c12` (stereo not shown) [Compound 63], the IC50 was 100 to 1000 nM.
Work on `Nc1ccccc1C(=O)c1ccc(-c2nc(C3CCC(CO)OC3)n3ccnc(N)c23)cc1` (stereo not shown) [Compound 65] yielded an IC50 of 5 to 20 nM.
Compound `Nc1nccn2c(C3CCC(CO)OC3)nc(-c3ccc(C(=O)c4ccccc4O)cc3)c12` (stereo not shown) [Compound 66] has an IC50 of 20 to 100 nM.
With `CNc1ccccc1C(=O)c1ccc(-c2nc(C3CCC(CO)OC3)n3ccnc(N)c23)cc1` (stereo not shown) [Compound 67] the IC50 was 100 to 1000 nM.
Work on `Nc1nccn2c(C3CCC(CO)OC3)nc(-c3ccc(C(=O)Nc4ccc(Cl)cn4)cc3)c12` (stereo not shown) [Compound 68] yielded an IC50 of 20 to 100 nM.
`Nc1nccn2c(C3CCC(CO)OC3)nc(-c3ccc(C(=O)Nc4ccc(F)cn4)cc3)c12` (stereo not shown) [Compound 69] gave an IC50 of 20 to 100 nM.
Work on `Nc1cccc(NC(=O)c2ccc(-c3nc(C4CCC(CO)OC4)n4ccnc(N)c34)cc2)n1` (stereo not shown) [Compound 71] yielded an IC50 of 20 to 100 nM.
`Nc1nccn2c(C3CCC(CO)OC3)nc(-c3ccc(C(=O)Nc4cccc(Br)n4)cc3)c12` (stereo not shown) [Compound 72] was tested, and the IC50 was 100 to 1000 nM.
In the case of `Nc1nccn2c(C3CCC(CO)OC3)nc(-c3ccc(C(=O)Nc4ccc(C(F)(F)F)cn4)cc3)c12` (stereo not shown) [Compound 73], the IC50 is reported as 100 to 1000 nM.
`COCCOc1ccc(-c2nc(C3CCC(CO)OC3)n3ccnc(N)c23)cc1` (stereo not shown) [Compound 74] gave an IC50 of over 1000 nM.
Work on `Nc1nccn2c(C3CCC(CO)OC3)nc(-c3ccc(Oc4cccc(OC(F)F)c4F)cc3)c12` (stereo not shown) [Compound 75] yielded an IC50 of 5 to 20 nM.
In the case of `COc1c(F)cccc1Oc1ccc(-c2nc(C3CCC(CO)OC3)n3ccnc(N)c23)cc1` (stereo not shown) [Compound 76], the IC50 is reported as 100 to 1000 nM.
`Cc1ccc(Oc2ccc(-c3nc(C4CCC(CO)OC4)n4ccnc(N)c34)cc2)c(F)c1` (stereo not shown) [Compound 77] showed an IC50 of 20 to 100 nM.
`Cc1ccc(Oc2ccc(-c3nc(C4CCC(CO)OC4)n4ccnc(N)c34)cc2)cc1` (stereo not shown) [Compound 78] showed an IC50 of 20 to 100 nM.
In the case of `COc1cccc(NC(=O)c2ccc(-c3nc(C4CCC(CO)OC4)n4ccnc(N)c34)cc2)c1F` (stereo not shown) [Compound 79], the IC50 is reported as over 1000 nM.
`Nc1nccn2c(C3CCC(CO)OC3)nc(-c3cnc(Oc4cccc(Cl)c4)nc3)c12` (stereo not shown) [Compound 81] gave an IC50 of over 1000 nM.
Compound `COc1cccc(Oc2ccc(-c3nc(C4COC5C(O)COC45)n4ccnc(N)c34)cc2)c1F` (stereo not shown) [Compound 82] has an IC50 of 20 to 100 nM.
`Nc1nccn2c(C3COC4C(O)COC34)nc(-c3ccc(C(=O)Nc4ccccn4)cc3)c12` (stereo not shown) [Compound 83] showed an IC50 of 100 to 1000 nM.
`Nc1nccn2c(C3CCC(CO)OC3)nc(-c3ccc(Oc4ccc5c(c4F)OCC5)cc3)c12` (stereo not shown) [Compound 84] gave an IC50 of 20 to 100 nM.
In the case of `Nc1nccn2c(C3CCC(CO)OC3)nc(-c3ccc(Oc4ccc5c(c4F)OCO5)cc3)c12` (stereo not shown) [Compound 85], the IC50 is reported as 100 to 1000 nM.
